Data reported in patent publication US20250340529A1, “Heterocyclic Compounds as Immunomodulators of PD-L1 Interactions” (Ascletis BioScience Co., Ltd, priority 2021, published 2025).

Legend:
PD-1/PD-L1 = PD-1/PD-L1 (Homo sapiens (Human), UniProt Q9NZQ7); experiment: PD-1/PD-L1 Homogeneous Time-Resolved Fluorescence (HTRF) binding assay; details: 3 nM PD1, 10 nM PD-L1, 25° C., PBS pH 7.4
Outline: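 HTRF with His-tagged human PD-L1 (19-238, 10 nM) and Fc-tagged human PD-1 (25-167, 3 nM) preincubated with inhibitors 40 min in PBS pH 7.4, 0.05% Tween-20, 0.1% BSA, 1% DMSO, 25° C. Eu anti-human IgG and anti-His-APC added, 60 min; 665/620 nm ratio; IC50 from percent control activity fit.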

[1] = target: extracellular domains of PD-L1 (Homo sapiens (Human), UniProt Q9NZQ7); experiment: PD-L1 dimerization (biochemical protein-protein interaction assay); details: PDL1-Eu and PDL1-A2, 25° C., 120 min
Sequence of extracellular domains of PD-L1 (Q9NZQ7 19-238): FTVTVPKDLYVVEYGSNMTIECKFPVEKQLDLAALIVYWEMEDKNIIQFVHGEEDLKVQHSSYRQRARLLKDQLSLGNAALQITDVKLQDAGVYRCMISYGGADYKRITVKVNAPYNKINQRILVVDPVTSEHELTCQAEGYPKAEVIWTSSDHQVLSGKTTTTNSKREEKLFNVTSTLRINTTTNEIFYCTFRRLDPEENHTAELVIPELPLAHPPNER
Method: Compounds were tested in biochemical protein-protein interaction assays to determine if they can specifically dimerize the extracellular domains of PD-L1. • (1) Dilute cpd 1:3 in succession in DMSO for each column for 10±0 pts (refer to dilution plate map) • (2) Transfer 0.2 μL cpds solution in each row to 384 assay plate using Echo, each column containing 2 replicates (refer to assay plate map). • (3) Add 20 μL prepared mixture include PDL1-Eu and PDL1-A2 solution to assay plate, centrifuge at 1000 rpm for 1 min. • (4) Incubate at 25° C. for 120 min. • (5) Read fluorescence signal on Envision 2104 plate reader. • (6) Read the Ratio (665 nm/615 nm) signal on Envision. • (7) Analyze the raw data using the equation (V. Data analysis)

PD-L1/CHO-K1 cells = PD-L1/CHO-K1 cells (Homo sapiens (Human), UniProt Q9NZQ7); experiment: PD-L1 internalization (FACS, PD-L1/CHO-K1 cells); assay type: cell-based; details: % activation of PD-L1 internalization = 1 − PD-L1 signal; 17 hours incubation
Sequence of PD-L1/CHO-K1 cells (Q9NZQ7 19-290): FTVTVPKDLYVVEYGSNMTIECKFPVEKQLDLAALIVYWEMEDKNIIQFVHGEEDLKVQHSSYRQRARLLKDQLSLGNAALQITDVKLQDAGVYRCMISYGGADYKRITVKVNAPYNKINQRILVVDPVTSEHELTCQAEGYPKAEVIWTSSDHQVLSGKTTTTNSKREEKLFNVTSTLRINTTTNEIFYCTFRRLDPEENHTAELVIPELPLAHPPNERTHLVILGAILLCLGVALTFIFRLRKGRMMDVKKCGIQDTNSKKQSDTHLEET
Method: Day 1. Seeding cells: Digest the PD-L1/CHO-K1 cells by trypsin in the flask, then counting the cell number and diluted to 1×10^5 cells/ml. Seeding cells to 6 well plate (Corning, #3516), 2 mL/well. The plates were incubated at 37° C., […] incubator for 24 hours.
Day 2. Preparing compounds and treated cells: Dilute GLC01-258 from 15 mM to 0.5 mM by using DMSO, and 15 mM compound were serial diluted from 15 mM˜15 nM by DMSO, Then 500 times dilute the compounds by using assay buffer. Prepare 0.2% DMSO in assay buffer used for Vehicle control and low control. Take out the plates, aspirated the medium and thrown away. Adding 2 mL of the diluted compounds, vehicle control and low control to corresponding wells. Then incubated the plates for 17 hours at 37° C., 5% CO2 incubator.
Day 3. Preparing samples for FACS: After 17 hours incubation, discarded medium and washed by the PBS. Cells in each well were Digested by trypsin. Centrifuge and discard the supernatant, then wash the cells by DPBS (Ca^2+, Mg^2+ free) for twice. 10 fold dilute the antibody (PE-conjugated mouse anti-human CD274) by DPBS, then adding the staining solution to compounds treated samples and vehicle control sample. The low control only add DPBS without antibody. Incubate the plates at room temperature for 20 minutes and protect from light. After 20 minutes, wash the samples by DPBS for twice. Then centrifuge and discard the supernatant. Resuspend cells by 300 uL DPBS and transfer the samples to 5 mL Polystryrene Round-Bottom Tube (Falcon, #352054), then tested by BD FACSCanto. […].
Set the PD-L1 signal of vehicle control as 100%, PD-L1 signal of Low control as 0%. Then calculate the compound treated samples' PD-L1 signal
0% PD-L1 signal: Low control which stained without anti-CD274
100% PD-L1 Signal: vehicle control which stained with anti-CD274
The % activation of PD-L1 Internalization=1−PD-L1 signal of compound.

[2] = system: Hep3B-OS8-hPDL1 cells and CD3+ T cells; experiment: Hep3B-OS8-hPDL1 and T cells co-culture assay (IFN-γ by ELISA); assay type: cell-based; details: Homo sapiens, T-cell, 72 hours, read-out: Tumor and T Cell EC50 (nm)
Method: a. Hep3B-OS8-hPDL1 and T Cells Co-Culture Assay
• 1. Hep3B-OS8-hPDL1 cells were cultured in 1640 medium supplemented with 10% fetal bovine serum, 1% penicillin and streptomycin, in which 100 μg/mL G418 and Hygromycin B were also added. • 2. Hep3B-OS8-hPDL1 cells were harvested and treated with 10 μg/mL mitomycin C at 37° C. for 1.5 h, and the cells were then washed thoroughly with PBS for four times. • 3. Cells were re-suspended with RPMI 1640 medium containing 10% FBS and the cell density was adjusted to 5E5 cells/mL. • 4. Cells were seeded into 96-well flat bottom plate (2.5E4 cells/50 μL/well). b. CD3+ T Cells Isolation (30 mL Blood) • 5. The human blood sample from an individual donor is diluted by the same volume of sterile PBS, for instance add 25 mL sterile PBS into 25 mL fresh whole blood and mix sufficiently by gentle shake. • 6. Transfer 15 mL Lymphoprep medium into a new 50 mL centrifuge tube. • 7. Add the diluted blood sample as soft as possible onto the surface of the Ficoll medium to make sure there is a clear dividing line between the two liquids, and the volume ratio between Ficoll and diluted blood (30 mL) is 1:2. • 8. Move the tube gently to centrifuge, at 1000×g, 25 min, 20° C., with the acceleration (5) and Min deceleration (0) settings during the centrifugation. • 9. Four interfaces in all could be observed after the centrifugation, which are layers of plasma, mononuclear cells, the Ficoll medium and RBCs from top to bottom, and move the tube as gently as possible so as keep the four interfaces separated. Absorb and transfer the second layer of mononuclear cells into another new sterile centrifuge tube carefully, and absorb certain volume of plasma instead of the Ficoll medium if inevitable. • 10. Add sterile PBS of the three times the volume of PBMCs in the tube with PBMC. • 11. Wash the cells twice with 5-10 mL PBS before cell counting with cytometer. Centrifuge at 350×g, 10 min, 20° C. With the acceleration (5) and deceleration (5) settings during the centrifugation. • 12. Resuspend the cells with recommended medium and adjust the density of the PBMCs to the final concentration of 5E7 cells/mL. • 13. Isolate CD3+ T cells with EasySep™ Human T Cell Isolation Kit (STEMCELL Technologies #17951), and the cells were seeded into 96-well flat bottom plate (5E4 cells/100 μL/well). c. Compounds solutions preparation • 14. Prepare the Compounds dilutions in RPMI 1640 medium with 10% FBS according to the Layout. 15. Add compounds into each well in a volume of 50 μL. {3 compounds (GLC01-258, GLC01-269, GLC01-465) in 7 concentrations (0.03, 0.1, 0.3, 1, 3, 10 and 30 μM) and 6 compounds (GLC01-411, GLC01-292, GLC01-445, GLC01-475, GLC01-470 and GLC01-468) in the same concentration (1 μM)}. • 16. […]

Sequence of PD-1/PD-L1 (Q9NZQ7 19-238): as the sequence (Q9NZQ7 19-238) above

SMILES	IC50 (PD-1/PD-L1) [nM]	EC50 [1] [nM]	Internalization (PD-L1/CHO-K1 cells) [%]	EC50 [2] [nM]
O=C1COc2cc(-c3cccc(-c4cccc(-c5ccc6c(c5)OCC(=O)N6C[C@@H]5CCCN5)c4Cl)c3Cl)ccc2N1C[C@@H]1CCCN1 [Compound 411, 7,7′-(2,2′-dichloro-[1,1′-biphenyl]-3,3′-diyl)bis(4-(((S)-pyrrolidin-2-yl)methyl)-2H-benzo[b][1,4]oxazin-3(4H)-one)]	6.14	357	66.90	–
Cc1c(-c2ccc3c(c2)OCC(=O)N3CCN[C@@H](CO)C(=O)O)cccc1-c1cccc(-c2ccc3c(c2)OCC(=O)N3CCN[C@@H](CO)C(=O)O)c1C [Compound 585]	10.9	130	39.00	–
O=C1COc2cc(-c3cccc(-c4cccc(-c5ccc6c(c5)OCC(=O)N6C[C@@H]5C[C@@H](O)CN5)c4Cl)c3Cl)ccc2N1C[C@@H]1C[C@@H](O)CN1 [Compound 472]	5.27	359	17.20	–
O=C(O)[C@H](CCO)NCCN1C(=O)COc2cc(-c3cccc(-c4cccc(-c5ccc6c(c5)OCC(=O)N6CCN[C@@H](CCO)C(=O)O)c4Cl)c3Cl)ccc21 [Compound 560]	7.78	–	3.10	–
COC[C@H](NCCN1C(=O)COc2cc(-c3cccc(-c4cccc(-c5ccc6c(c5)OCC(=O)N6CCN[C@@H](COC)C(=O)O)c4Cl)c3Cl)ccc21)C(=O)O [Compound 588]	7.35	154	2.00	–
O=C1CC[C@@H](CN2C(=O)COc3c2ccc(-c2cccc(-c4cccc(-c5ccc6c(c5F)OCC(=O)N6C[C@@H]5CCC(=O)N5)c4Cl)c2Cl)c3F)N1 [Compound 395]	6.26	–	2.50	–
O=C(O)[C@H](CO)NCCN1C(=O)COc2cc(-c3cccc(-c4cccc(-c5ccc6c(c5)OCC(=O)N6C[C@@H]5CCCN5)c4Cl)c3Cl)ccc21 [Compound 533]	7.11	91	32.70	6.03
C[C@H](CN1C(=O)COc2cc(-c3cccc(-c4cccc(-c5ccc6c(c5)OCC(=O)N6C[C@@H](C)N[C@@H](CO)C(=O)O)c4Cl)c3Cl)ccc21)N[C@@H](CO)C(=O)O [Compound 563, (2S,2'S)-2,2′-(((2R,2′R)-((2,2′-dichloro-[1,1′-biphenyl]-3,3′-diyl)bis(3-oxo-2,3-dihydro-4H-benzo[b][1,4]oxazine-7,4-diyl))bis(propane-1,2-diyl))bis(azanediyl))bis(3-hydroxypropanoic acid)]	7.18	37.7	25.50	–

These reach a lower IC50 (PD-1/PD-L1). Values come first.

IC50 (PD-1/PD-L1) [nM]	EC50 [1] [nM]	Internalization (PD-L1/CHO-K1 cells) [%]	EC50 [2] [nM]	SMILES
1.42	326	5.20	–	O=C(O)[C@@H]1C[C@@H](O)CN1CCN1C(=O)COc2cc(-c3cccc(-c4cccc(-c5ccc6c(c5)OCC(=O)N6CCN5C[C@H](O)C[C@H]5C(=O)O)c4Cl)c3Cl)ccc21 [Compound 454]
4.41	354	21.00	–	C[C@H]1CC[C@@H](CN2C(=O)COc3cc(-c4cccc(-c5cccc(-c6ccc7c(c6)OCC(=O)N7C[C@@H]6CC[C@H](C)N6)c5Cl)c4Cl)ccc32)N1 [Compound 535]
3.96	225	3.00	–	C[C@@H](CN1C(=O)COc2cc(-c3cccc(-c4cccc(-c5ccc6c(c5)OCC(=O)N6C[C@H](C)N[C@@H](CO)C(=O)O)c4Cl)c3Cl)ccc21)N[C@@H](CO)C(=O)O [Compound 550]
4.9	–	20.90	–	O=C(O)CCNCCN1C(=O)COc2cc(-c3cccc(-c4cccc(-c5ccc6c(c5)OCC(=O)N6CCNCCC(=O)O)c4Cl)c3Cl)ccc21 [Compound 468]
2.28	–	20.90	–	O=C(O)CC(O)CNCCN1C(=O)COc2cc(-c3cccc(-c4cccc(-c5ccc6c(c5)OCC(=O)N6CCNCC(O)CC(=O)O)c4Cl)c3Cl)ccc21 (centres unmarked) [Compound 470]
4.31	–	7.90	–	C[C@H](NCCN1C(=O)COc2cc(-c3cccc(-c4cccc(-c5ccc6c(c5)OCC(=O)N6CCN[C@@H](C)C(=O)O)c4Cl)c3Cl)ccc21)C(=O)O [Compound 536]
3.79	–	3.20	–	O=C1CC(CN2C(=O)COc3cc(-c4cccc(-c5cccc(-c6ccc7c(c6)OCC(=O)N7CC6CNC(=O)C6)c5Cl)c4Cl)ccc32)CN1 (centres unmarked) [Compound 373]
2.64	–	3.10	–	C[C@H](O)[C@@H](NCCN1C(=O)COc2cc(-c3cccc(-c4cccc(-c5ccc6c(c5)OCC(=O)N6CCN[C@@H](C(=O)O)[C@H](C)O)c4Cl)c3Cl)ccc21)C(=O)O [Compound 551]
5.04	175	13.30	–	O=C(O)C[C@H](CO)NCCN1C(=O)COc2cc(-c3cccc(-c4cccc(-c5ccc6c(c5)OCC(=O)N6CCN[C@@H](CO)CC(=O)O)c4Cl)c3Cl)ccc21 [Compound 528]
4.19	–	3.50	–	O=C1COc2cc(-c3cccc(-c4cccc(-c5ccc6c(c5)OCC(=O)N6C[C@@H]5CCNC5)c4Cl)c3Cl)ccc2N1C[C@@H]1CCNC1 [Compound 503]
